BindingDB's records for doi:10.1016/j.bmcl.2004.06.042 (Universidad De Buenos Aires, 2004)

Biological target: Hypoxanthine-guanine phosphoribosyltransferase (Trypanosoma cruzi)
Assay: Inhibition of hypoxanthine-guanine phosphoribosyltransferase (TcHPRT)

Question: How did the Ki turn out when `CN(C)CCC(O)(P(=O)(O)O)P(=O)(O)O` [hydrogen 3-(dimethylammonio)-1-hydroxy-1-(hydroxyphosphinato)propylphosphonate] was run?
Answer: 126 µM
